In one assay the target is T1, IGF-1R (Homo sapiens, UniProt P08069).
T1 construct: expressed in transfected cells; host or cells: 3T3/IGF-1R cells (mouse 3T3 host)
As to the kind of experiment: Cellular IGF-1 Receptor ELISA. As to conditions: 3T3/IGF-1R cells. The assay is classed as cell-based. Here is the method:
Cellular IGF-1 Receptor ELISA (Version I)
(1). The cell line used in this assay is 3T3/IGF-1R, a cell line which overexpresses IGF-1 Receptor.
(2). 3T3/IGF-1R is grown in an incubator with 5% CO2 at 37° C. The growth media is DMEM+10% FBS (heat inactivated)+2mM L-Glutamine.
(3). For ELISA plate coating, the anti-IGF-1R antibody named 17-69 is used. Antibodies are purified by the Enzymology Lab, SUGEN, Inc.
All the following steps are conducted at room temperature unless it is specifically indicated. All ELISA plate washings are performed by rinsing the plate with tap water three times, followed by one TBST rinse. Pat plate dry with paper towels.
(1). The cells, grown in tissue culture dish (10 cm, Corning 25020-100) to 80-90% confluence, are harvested with Trypsin-EDTA (0.25%, 0.5 ml/D-100, GIBCO).
(2). Resuspend the cells in fresh DMEM+10% FBS+2mM L-Glutamine, and transfer to 96-well tissue culture plate (Corning, 25806-96) at 20,000 cells/well (100 ul/well). Incubate for 1 day then replace medium to serum-free medium (90/ul) and incubate in 5% CO2 and 37° C. overnight.
(1). Coat the ELISA plate (Corning 25805-96) with Anti-IGF-1R Antibody at 0.5 ug/well in 100 ul PBS at least 2 hours.
(2). Remove the coating solution, and replace with 100 ul Blocking Buffer, and shake for 30 minutes. Remove the blocking buffer and wash the plate just before adding lysate.
(1). The drugs are tested in serum-free condition.
(2). Dilute drug stock (in 100% DMSO) 1:10 with DMEM in 96-well poly-propylene plate, and transfer 10 ul/well of this solution to the cells to achieve final drug dilution 1:100, and final DMSO concentration of 1.0%. Incubate the cells in 5% CO2 at 37° C. for 2 hours.
(3). Prepare fresh cell lysis buffer (HNTG HNTG 2 ml EDTA 0.1 ml Na3VO4 0.1 ml Na4P2O7 0.1 ml H20 7.3 ml HNTG* 10 ml.
(4). After drug incubation for two hours, transfer 10 ul/well of 200 nM IGF-1 Ligand in PBS to the cells (Final Conc=20 nM), and incubate at 5% CO2 at 37° C. for 10 minutes.
(5). Remove media and add 100ul/well HNTG* and shake for 10 minutes. Look at cells under microscope to see if they are adequately lysed.
(6). Use a 12-channel pipette to scrape the cells from the plate, and homogenize the lysate by repeat aspiration and dispense. Transfer all the lysate to the antibody coated ELISA plate [V.2.(2)], and shake for 1 hour.
(7). Remove the lysate, wash the plate, transfer anti-pTyr (1:3,000 with TBST) 100 ul/well, and shake for 30 minutes.
(7). Remove anti-pTyr, wash the plate, transfer detection antibody (1:3,000 with TBST) 100 ul/well, and shake for 30 minutes.
(8). Remove detection antibody, wash the plate, and transfer fresh ABTS/H2O2 (1.2 ul H2O2 to 10 ml ABTS) 100 ul/well to the plate to start color development.
(9). Measure OD (410 nm) in Dynatec MR5000, which is connected to Ingres.

For a further assay, the target named is T2, PDGFR (Homo sapiens, UniProt P09619).
T2 construct: endogenous in cells; host or cells: U1242 MG human glioblastoma cells
As to the kind of experiment: PDGF-R Cellular Assay (ELISA). The assay is classed as cell-based. To be noted: U1242 human glioblastoma cells. The text has this: The following examples illustrates the ability of the exemplary compounds to inhibit receptor tyrosine kinases, such as HER2 and/or EGFR. The following target cells were used for cellular kinase assays: NIH3T3 clone C7 (Honegger et al., supra) engineered to over-express human EGF receptor; NIH3T3 cells engineered to over-express a chimeric receptor containing the EGFR extracellular domain and the HER2 intracellular kinase domain; the human mammary carcinoma line BT474 (ATCC HTB2) expressing HER2; and the human glioblastoma line U1242 that expresses PDGFR-beta. Growth assays were carried out using human mammary epithelial SKBR3 (ATCC HTB30) cells (SKBR3 cells over-express HER2), SKOV3 (AT(D(D HTB77) human ovarian cancer cell line (SKOV3 cells also over-express HER2), A431 cells (A431 cells over-express EGFR) MCF7 human breast carcinoma cells, MCF7 cells overexpressing the HER2 kinase (MCF7-HER2), NIH3T3 cells, and NIH3T3 cells overexpressing the HER2 kinase (3T3-HER2.
The PDGF cellular kinase assay was carried out as follows: cells are lysed in 0.2M Hepes, 0.15M NaCl, 10% VN glycerol, 0.04% Triton X-100, 5 mM EDTA, 5 mM Na+ vanadate and 2 mM Na+ pyrophosphate; cell lysates are then added to an ELISA plate coated with an anti-PDGF receptor antibody (Genzyme); ELISA plates are coated at 0.5 μg of antibody/well in 150 μl of PBS for 18 hours at 4° C. prior to the addition of the lysate; the lysate is incubated in the coated plates for 1 hour and then washed four times in TBST (35 mM Tris-HCl pH 7.0, 0.15M NaCl, 0.1% Triton X100); anti-phosphotyrosine antibody (100 μl in PBS) is added and the mixture is incubated for 30 minutes at room temperature; the wells were then washed four times in TBST, a secondary antibody conjugated to POD (TAGO) is added to each well, and the treated well are incubated for 30 minutes at room temperature; the wells are then washed four times in TBST, ABTS/H2 O2 solution is added to each well and the wells are incubated for two minutes; absorbance is then measured at 410 nm.
U1242 MG cells were plated in 96-well plates at a concentration of 5×10^4 cells/well in cultured media containing 0.5% FBS. The cells were incubated for 24 hours. The cells were then treated with a particular compound for 2 hours followed by the addition of 100 ng/ml PDGF-BB and incubation for 10 minutes.
Cells were lysed in 0.2M Hepes, 0.15M NaCl, 10% VN glycerol, 0.04% Triton X-100, 5 mM EDTA, 5 mM Na^+ vanadate and 2 mM Na^+ pyrophosphate. Cell lysates were then added to an ELISA plate coated with an anti-PDGF receptor antibody (Genzyme). ELISA plates were coated at 0.5 μg of antibody/well in 150 μl of PBS for 18 hours at 4° C. prior to the addition of the lysate.
The lysate was incubated in the coated plates for 1 hour and then washed four times in TBST (35 mM Tris-HCl pH 7.0, 0.15M NaCl, 0.1% Triton X-100). Anti-phosphotyrosine antibody (100 μl in PBS) was added and the mixture was incubated for 30 minutes at room temperature. The wells were then washed four times in TBST, a secondary antibody conjugated to POD (TAGO) was added to each well, and the treated well were incubated for 30 minutes at room temperature. The wells were then washed four times in TBST, ABTS/H2 O2 solution was added to each well and the wells were incubated for two minutes. Absorbance was then measured at 410 nm.

A value given as a limit tells only on which side of the number the result lay.

T2 sequence (P09619 33-1106): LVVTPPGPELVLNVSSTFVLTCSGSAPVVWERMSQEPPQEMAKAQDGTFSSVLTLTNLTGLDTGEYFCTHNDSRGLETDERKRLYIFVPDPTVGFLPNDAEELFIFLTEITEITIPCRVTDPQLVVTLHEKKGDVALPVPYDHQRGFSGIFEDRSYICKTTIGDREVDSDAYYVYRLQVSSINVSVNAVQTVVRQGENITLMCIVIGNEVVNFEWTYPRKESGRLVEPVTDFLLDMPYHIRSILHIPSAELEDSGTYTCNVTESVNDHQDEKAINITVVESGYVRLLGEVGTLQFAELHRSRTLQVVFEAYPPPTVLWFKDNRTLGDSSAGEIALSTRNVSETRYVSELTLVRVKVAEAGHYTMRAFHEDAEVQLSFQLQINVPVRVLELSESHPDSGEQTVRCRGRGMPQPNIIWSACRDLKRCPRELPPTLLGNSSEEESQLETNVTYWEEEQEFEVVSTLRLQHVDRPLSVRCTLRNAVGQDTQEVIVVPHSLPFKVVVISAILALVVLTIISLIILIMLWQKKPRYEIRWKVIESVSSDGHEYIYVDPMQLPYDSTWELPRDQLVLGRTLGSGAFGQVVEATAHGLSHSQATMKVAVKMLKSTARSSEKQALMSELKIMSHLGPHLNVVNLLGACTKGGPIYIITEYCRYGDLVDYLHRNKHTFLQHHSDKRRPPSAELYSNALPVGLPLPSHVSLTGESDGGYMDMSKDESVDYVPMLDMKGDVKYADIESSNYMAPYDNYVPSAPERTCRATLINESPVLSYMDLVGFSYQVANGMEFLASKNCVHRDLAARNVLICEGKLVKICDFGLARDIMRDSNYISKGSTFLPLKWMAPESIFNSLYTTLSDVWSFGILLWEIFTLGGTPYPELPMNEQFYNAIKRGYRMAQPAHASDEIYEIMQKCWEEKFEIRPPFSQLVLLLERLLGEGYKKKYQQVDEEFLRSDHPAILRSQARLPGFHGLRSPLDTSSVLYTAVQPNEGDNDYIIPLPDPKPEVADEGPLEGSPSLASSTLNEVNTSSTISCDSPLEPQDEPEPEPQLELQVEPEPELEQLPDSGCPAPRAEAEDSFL
T1 sequence (P08069 31-1367): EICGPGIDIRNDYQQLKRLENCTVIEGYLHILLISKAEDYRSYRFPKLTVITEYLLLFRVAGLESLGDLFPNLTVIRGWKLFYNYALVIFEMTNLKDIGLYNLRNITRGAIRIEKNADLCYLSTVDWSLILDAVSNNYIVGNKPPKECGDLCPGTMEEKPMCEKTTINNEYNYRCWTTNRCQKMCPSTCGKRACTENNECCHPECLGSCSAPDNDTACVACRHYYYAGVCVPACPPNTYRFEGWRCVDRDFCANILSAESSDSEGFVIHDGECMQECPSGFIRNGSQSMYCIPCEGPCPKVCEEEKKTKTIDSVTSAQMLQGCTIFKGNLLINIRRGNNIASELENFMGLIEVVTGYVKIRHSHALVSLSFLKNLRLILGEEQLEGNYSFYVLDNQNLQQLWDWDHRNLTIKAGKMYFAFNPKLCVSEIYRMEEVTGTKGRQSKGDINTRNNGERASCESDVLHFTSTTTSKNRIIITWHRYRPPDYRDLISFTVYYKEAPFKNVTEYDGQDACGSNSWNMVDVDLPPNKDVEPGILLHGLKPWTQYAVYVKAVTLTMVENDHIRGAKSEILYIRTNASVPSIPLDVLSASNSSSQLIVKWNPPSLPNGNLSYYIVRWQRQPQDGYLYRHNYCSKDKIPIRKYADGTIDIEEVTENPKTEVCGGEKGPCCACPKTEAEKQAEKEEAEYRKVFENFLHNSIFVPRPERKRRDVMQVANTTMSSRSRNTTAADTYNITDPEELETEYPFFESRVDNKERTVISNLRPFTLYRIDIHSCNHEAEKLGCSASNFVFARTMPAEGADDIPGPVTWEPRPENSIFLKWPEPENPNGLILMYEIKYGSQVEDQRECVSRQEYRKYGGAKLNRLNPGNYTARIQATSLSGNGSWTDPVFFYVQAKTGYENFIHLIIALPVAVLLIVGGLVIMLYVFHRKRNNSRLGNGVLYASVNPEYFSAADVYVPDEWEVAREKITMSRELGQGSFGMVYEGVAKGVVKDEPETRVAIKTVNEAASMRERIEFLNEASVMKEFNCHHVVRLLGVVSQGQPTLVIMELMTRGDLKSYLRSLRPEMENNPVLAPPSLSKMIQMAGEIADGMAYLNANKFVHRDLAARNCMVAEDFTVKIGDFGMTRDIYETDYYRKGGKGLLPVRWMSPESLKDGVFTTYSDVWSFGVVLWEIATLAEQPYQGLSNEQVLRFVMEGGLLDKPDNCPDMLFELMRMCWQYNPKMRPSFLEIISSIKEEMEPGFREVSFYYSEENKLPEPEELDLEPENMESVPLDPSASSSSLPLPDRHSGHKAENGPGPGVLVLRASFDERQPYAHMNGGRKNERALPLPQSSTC

For the compound `CCOC(=O)c1cnc2c(F)ccc(F)c2c1Sc1cccc(C(F)(F)F)c1` [Compound A713, 3-Ethoxycarbonyl-5,8-difluoro-4-(3-trifluoromethylphenylmercapto)quinoline], the IC50 at IGF-1R is more than 100 µM; against PDGFR, more than 50 µM.
For `CCOC(=O)c1cnc2ccc(C(F)(F)F)cc2c1Nc1cccc(Br)c1` [Compound A716, 4-(3-Bromophenylamino)-3-ethoxycarbonyl-6-trifluoromethylquinoline] the same measures were more than 100 µM and more than 100 µM.
On to `CCOC(=O)c1cnc2ccc(C(F)(F)F)cc2c1NCc1ccccc1C(F)(F)F` [Compound A717, 3-Ethoxycarbonyl-4-(2-trifluoromethylbenzylamino)-6-trifluoromethylquinoline], for which the 50% inhibitory concentration (IC50) on IGF-1R was more than 100 µM.
At IGF-1R, `CCOC(=O)c1cnc2ccc(C(F)(F)F)cc2c1NCc1cccc(C(F)(F)F)c1` [Compound A718, 3-Ethoxycarbonyl-4-(3-trifluoromethylbenzylamino)-6-trifluoromethylquinoline] returned an IC50 of more than 100 µM.
On the same count and under the same terms, the value for `CCOC(=O)c1cnc2ccc(C(F)(F)F)cc2c1NCc1ccc(C(F)(F)F)cc1` [Compound A719, 3-Ethoxycarbonyl-4-(4-trifluoromethylbenzylamino)-6-trifluoromethylquinoline] was more than 100 µM.
Still for that read-out and setting: the value for `CCOC(=O)c1cnc2ccc(C(F)(F)F)cc2c1Nc1ccccc1C(F)(F)F` [Compound A720, 3-Ethoxycarbonyl-4-(2-trifluoromethylphenylamino)-6-trifluoromethylquinoline] was more than 100 µM.
For the compound `CCOC(=O)c1cnc2ccc(C(F)(F)F)cc2c1Nc1cccc(C(F)(F)F)c1` [Compound A721, 3-Ethoxycarbonyl-4-(3-trifluoromethylphenylamino)-6-trifluoromethylquinoline], the 50% inhibitory concentration (IC50) on IGF-1R and at PDGFR was more than 100 µM in each case.
In the case of `CCOC(=O)c1cnc2ccc(C(F)(F)F)cc2c1Nc1ccc(C(F)(F)F)cc1` [Compound A722, 3-Ethoxycarbonyl-4-(4-trifluoromethylphenylamino)-6-trifluoromethylquinoline], the IC50 on IGF-1R and at PDGFR was more than 100 µM throughout.
In the case of `CCOC(=O)c1cnc2ccc(C(F)(F)F)cc2c1Nc1ccccc1C#N` [Compound A723, 4-(2-Cyanophenylamino)-3-ethoxycarbonyl-6-trifluoromethylquinoline], the 50% inhibitory concentration (IC50) at IGF-1R is more than 100 µM.
In the case of `CCOC(=O)c1cnc2ccc(C(F)(F)F)cc2c1Nc1ccc(C#N)cc1` [Compound A725, 4-(4-Cyanophenylamino)-3-ethoxycarbonyl-6-trifluoromethylquinoline], the IC50 on IGF-1R is more than 100 µM.
On the same count and under the same terms, the value for `CCOC(=O)c1cnc2ccc(C(F)(F)F)cc2c1Nc1ccc(OC)c(OC)c1` [Compound A726, 3-Ethoxycarbonyl-4-(3,4-dimethoxyphenylamino)-6-trifluoromethylquinoline] was more than 100 µM; that for `CCOC(=O)c1cnc2ccc(C(F)(F)F)cc2c1Nc1ccc(Br)cc1` [Compound A727, 4-(4-Bromophenylamino)-3-ethoxycarbonyl-6-trifluoromethylquinoline] was more than 100 µM; that for `CCOC(=O)c1cnc2ccc(C(F)(F)F)cc2c1Nc1cccc(Cl)c1` [Compound A728, 4-(3-Chlorophenylamino)-3-ethoxycarbonyl-6-trifluoromethylquinoline] was more than 100 µM.
Still for that read-out and setting: the value for `CCOC(=O)c1cnc2ccc(C(F)(F)F)cc2c1Nc1ccc(Cl)cc1` [Compound A729, 4-(4-Chlorophenylamino)-3-ethoxycarbonyl-6-trifluoromethylquinoline] was more than 100 µM.
With `CCOC(=O)c1cnc2c(F)cc(F)cc2c1Sc1ccc(Cl)cc1` [Compound A730, 4-(4-Chlorophenylmercapto)-6,8-difluoro-3-ethoxycarbonylquinoline], the half-inhibitory concentration (IC50) on IGF-1R and against PDGFR was more than 50 µM throughout.
Turning to `CCOC(=O)c1cnc2cc(Cl)c(F)cc2c1Sc1ccc(Cl)cc1` [Compound A731, 7-Chloro-4-(4-chlorophenylmercapto)-6-fluoro-3-ethoxycarbonylquinoline], the IC50 on IGF-1R and on PDGFR was more than 50 µM in each case.
As for `CCOC(=O)c1cnc2c(F)ccc(F)c2c1Sc1ccc(Cl)cc1` [Compound A732, 4-(4-Chlorophenylmercapto)-5,8-difluoro-3-ethoxycarbonylquinoline], the 50% inhibitory concentration (IC50) against IGF-1R is more than 100 µM; against PDGFR, more than 50 µM.

By IC50 is commonly meant the point on the concentration scale where inhibition reaches its midpoint.

The values above are taken from patent publication US5650415A, “Quinoline compounds” (Sugen, Inc., priority 1995, dated 1997).
